Assay results taken from patent US20260014119A1, “EMOPAMIL-BINDING PROTEIN INHIBITORS AND USES THEREOF” (BIOGEN MA INC., priority 2022, published 2026).

Target: T1, EBP (Homo sapiens, UniProt Q15125)
T1 construct: HEK293T cells were utilized as the source of EBP enzyme; endogenous in cells; host or cells: HEK293T
Test: EBP Functional Assay (EBP immunoaffinity LC-MS assay)
Format: biochemical
Conditions: EBP enzyme from HEK293T cells; 30 min with inhibitor, then zymosterol-d5 at 37° C. for 4 h; percent conversion by LC-APCI MRM MS
Experimental: The EBP immunoaffinity (IA) LC-MS assay measures the potency of small molecule inhibitors of EBP by quantifying their concentration-dependent changes in the enzyme's substrate and product using liquid chromatography atmospheric pressure chemical ionization multiple reaction monitoring mass spectrometry (LC-APCI MRM MS). HEK293T cells were utilized as the source of EBP enzyme. The enzyme was incubated with the small molecule inhibitors at variable concentrations for 30 min. Deuterated form of EBP substrate, zymosterol-d5 (Avanti Polar Lipids, Cat #700068P-1 mg), was then added and the plate was incubated at 37° C. for 4 h. Finally, the sterol isomers were extracted and injected to LC-APCI MRM MS. MRM transition used for the quantification for both zymosterol and […] (substrate and product of EBP enzymatic reaction, respectively) is 372.3-203.2, CE 30 and DP 80 in positive ion mode. Percent conversion of the zymosterol-d5 to dehydrolathosterol-d5 was used to derive IC50 curves. Tasin-1 (1′-[(4-Methoxyphenyl)sulfonyl]-4-methyl-1,4′-bipiperidine, CAS 792927-06-1) was used as the reference small molecule inhibitor.
Percent conversion versus the compound concentration data were fit to the following 4-parameter logistic model to generate IC50 curves: […]

T1 sequence (Q15125 whole entry): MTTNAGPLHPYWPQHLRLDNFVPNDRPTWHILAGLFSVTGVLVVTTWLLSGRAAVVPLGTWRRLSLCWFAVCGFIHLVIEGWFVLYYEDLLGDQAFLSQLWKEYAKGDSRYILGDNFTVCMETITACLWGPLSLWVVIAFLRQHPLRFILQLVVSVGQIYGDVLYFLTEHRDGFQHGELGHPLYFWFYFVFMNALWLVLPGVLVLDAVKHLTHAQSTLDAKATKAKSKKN

IC50	Structure (SMILES)
< 0.1 µM	Cc1cc(C)c(S(=O)(=O)N2CC3CN(C4CCOCC4)CC3C2)c(C)c1 (stereo not drawn) [Example 32, 2-(Mesitylsulfonyl)-5-(tetrahydro-2H-pyran-4-yl)octahydropyrrolo[3,4-c]pyrrole]
> 0.5 µM	N#Cc1cc(F)cc(S(=O)(=O)N2C[C@H]3CN(C4CCOCC4)C[C@H]3C2)c1 [Example 33, 3-Fluoro-5-(((3aR,6aS)-5-(tetrahydro-2H-pyran-4-yl)hexahydropyrrolo[3,4-c]pyrrol-2(1H)-yl)sulfonyl)benzonitrile]
< 0.1 µM	COc1ccc(S(=O)(=O)N2C[C@H]3CN(C4CCOCC4)C[C@H]3C2)c(C)n1 [Example 34, (3aR,6aS)-2-((6-Methoxy-2-methylpyridin-3-yl)sulfonyl)-5-(tetrahydro-2H-pyran-4-yl)octahydropyrrolo[3,4-c]pyrrole]
< 0.1 µM	Cc1nc(C(F)(F)F)ccc1S(=O)(=O)N1C[C@H]2CN(C3CCOCC3)C[C@H]2C1 [Example 35, (3aR,6aS)-2-((2-Methyl-6-(trifluoromethyl)pyridin-3-yl)sulfonyl)-5-(tetrahydro-2H-pyran-4-yl)octahydropyrrolo[3,4-c]pyrrole]

Second part, the compound before the results:

Structure (SMILES)	IC50
Cn1nc(C2CC2)cc1S(=O)(=O)N1C[C@H]2C[C@H](NC3CC4(COC4)C3)C[C@H]2C1 [Example 20, (3aR,5s,6aS)-2-((3-Cyclopropyl-1-methyl-1H-pyrazol-5-yl)sulfonyl)-N-(2-oxaspiro[3.3]heptan-6-yl)octahydrocyclopenta[c]pyrrol-5-amine]	0.1 to 0.5 µM
Cn1nc(C2CC2)cc1S(=O)(=O)N1C[C@H]2C[C@H](NCC3(C)COC3)C[C@H]2C1 [Example 21, (3aR,5s,6aS)-2-((3-Cyclopropyl-1-methyl-1H-pyrazol-5-yl)sulfonyl)-N-((3-methyloxetan-3-yl)methyl)octahydrocyclopenta[c]pyrrol-5-amine]	< 0.1 µM
Cc1nc(C(F)(F)F)ccc1S(=O)(=O)N1C[C@H]2C[C@H](N(C)CC3CCOCC3)C[C@H]2C1 [Example 23, (3aR,5s,6aS)-N-Methyl-2-((2-methyl-6-(trifluoromethyl)pyridin-3-yl)sulfonyl)-N-((tetrahydro-2H-pyran-4-yl)methyl)octahydrocyclopenta[c]pyrrol-5-amine]	< 0.1 µM
Cc1nc(C(F)(F)F)ccc1S(=O)(=O)N1C[C@H]2C[C@H](NCC3CCOCC3)C[C@H]2C1 [Example 27, (3aR,5s,6aS)-2-((2-Methyl-6-(trifluoromethyl)pyridin-3-yl)sulfonyl)-N-((tetrahydro-2H-pyran-4-yl)methyl)octahydrocyclopenta[c]pyrrol-5-amine]	< 0.1 µM
Cc1nc(C(F)(F)F)ccc1S(=O)(=O)N1C[C@H]2C[C@H](NC3CCOCC3)C[C@H]2C1 [Example 28, (3aR,5s,6aS)-2-((2-Methyl-6-(trifluoromethyl)pyridin-3-yl)sulfonyl)-N-(tetrahydro-2H-pyran-4-yl)octahydrocyclopenta[c]pyrrol-5-amine]	< 0.1 µM
Cc1nc(C(F)(F)F)ccc1S(=O)(=O)N1C[C@H]2C[C@H](NCC3(C)COC3)C[C@H]2C1 [Example 29, (3aR,5s,6aS)-2-((2-Methyl-6-(trifluoromethyl)pyridin-3-yl)sulfonyl)-N-((3-methyloxetan-3-yl)methyl)octahydrocyclopenta[c]pyrrol-5-amine]	< 0.1 µM
Cc1nc(C(F)(F)F)ccc1S(=O)(=O)N1C[C@H]2C[C@H](NC3CC4(COC4)C3)C[C@H]2C1 [Example 30, (3aR,5s,6aS)-2-((2-Methyl-6-(trifluoromethyl)pyridin-3-yl)sulfonyl)-N-(2-oxaspiro[3.3]heptan-6-yl)octahydrocyclopenta[c]pyrrol-5-amine]	0.1 to 0.5 µM
Cc1cc(S(=O)(=O)N2C[C@H]3CN(C4CCOCC4)C[C@H]3C2)n(C)n1 [Example 31, (3aR,6aS)-2-((1,3-dimethyl-1H-pyrazol-5-yl)sulfonyl)-5-(tetrahydro-2H-pyran-4-yl)octahydropyrrolo[3,4-c]pyrrole]	0.1 to 0.5 µM
